In ChEMBL document CHEMBL2434896, “Carbonic anhydrase inhibitors. Synthesis of heterocyclic 4-substituted pyridine-3-sulfonamide derivatives and their inhibition of the human cytosolic isozymes I and II and transmembrane tumor-associated isozymes IX and XII” (Eur J Med Chem, 2013):
pKi: −log10 of the molar value. Calls of active or inactive are those of the source.

Columns and labels:
[1] = system: OVCAR-5; assay: Growth inhibition of human OVCAR5 cells at 10 uM after 48 hrs by sulforhodamine B assay; format: functional
[2] = system: SR; assay: Growth inhibition of human SR cells at 10 uM after 48 hrs by sulforhodamine B assay; format: functional; settings: read-out: GI
[3] = system: KM12; assay: Growth inhibition of human KM12 cells at 10 uM after 48 hrs by sulforhodamine B assay; format: functional
[4] = system: HOP-62; assay: Growth inhibition of human HOP62 cells at 10 uM after 48 hrs by sulforhodamine B assay; format: functional
[5] = system: RXF 393; assay: Growth inhibition of human RXF393 cells at 10 uM after 48 hrs by sulforhodamine B assay; format: functional
[6] = system: MDA-MB-468; assay: Growth inhibition of human MDA-MB-468 cells at 10 uM after 48 hrs by sulforhodamine B assay; format: functional
[7] = system: MCF7; assay: Growth inhibition of human MCF7 cells at 10 uM after 48 hrs by sulforhodamine B assay; format: functional
[8] = system: HL-60(TB); assay: Growth inhibition of human HL-60(TB) cells at 10 uM after 48 hrs by sulforhodamine B assay; format: functional; settings: HL-60, 48 h, read-out: GI
[9] = system: T47D; assay: Growth inhibition of human T47D cells at 10 uM after 48 hrs by sulforhodamine B assay; format: functional
[10] = system: Hs-578T; assay: Growth inhibition of human Hs 578T cells at 10 uM after 48 hrs by sulforhodamine B assay; format: functional
[11] = Growth inhibition of human HCC2998 cells at 10 uM after 48 hrs by sulforhodamine B assay; format: functional; settings: HCC 2998, 48 h, read-out: GI
[12] = system: SK-MEL-28; assay: Growth inhibition of human SK-MEL-28 cells at 10 uM after 48 hrs by sulforhodamine B assay; format: functional, cell-based
[13] = system: CAKI-1; assay: Growth inhibition of human CAKI-1 cells at 10 uM after 48 hrs by sulforhodamine B assay; format: functional
[14] = system: HCT-116; assay: Growth inhibition of human HCT116 cells at 10 uM after 48 hrs by sulforhodamine B assay; format: functional
[15] = system: ACHN; assay: Growth inhibition of human ACHN cells at 10 uM after 48 hrs by sulforhodamine B assay; format: functional
[16] = system: SNB-19; assay: Growth inhibition of human SNB19 cells at 10 uM after 48 hrs by sulforhodamine B assay; format: functional
[17] = system: HT-29; assay: Growth inhibition of human HT-29 cells at 10 uM after 48 hrs by sulforhodamine B assay; format: functional
[18] = system: SF-539; assay: Growth inhibition of human SF539 cells at 10 uM after 48 hrs by sulforhodamine B assay; format: functional
[19] = system: 786-0; assay: Growth inhibition of human 786-0 cells at 10 uM after 48 hrs by sulforhodamine B assay; format: functional
[20] = system: A549; assay: Growth inhibition of human A549/ATCC cells at 10 uM after 48 hrs by sulforhodamine B assay; format: functional
[21] = system: COLO 205; assay: Growth inhibition of human COLO205 cells at 10 uM after 48 hrs by sulforhodamine B assay; format: functional
[22] = system: HOP-92; assay: Growth inhibition of human HOP92 cells at 10 uM after 48 hrs by sulforhodamine B assay; format: functional; settings: HOP-92, 48 h, read-out: GI
[23] = system: SK-MEL-5; assay: Growth inhibition of human SK-MEL-5 cells at 10 uM after 48 hrs by sulforhodamine B assay; format: functional
[24] = system: TK-10; assay: Growth inhibition of human TK10 cells at 10 uM after 48 hrs by sulforhodamine B assay; format: functional
[25] = system: UACC-257; assay: Growth inhibition of human UACC257 cells at 10 uM after 48 hrs by sulforhodamine B assay; format: functional; settings: UACC-257, 48 h, read-out: GI
[26] = system: MDA-MB-231; assay: Growth inhibition of human MDA-MB-231 cells at 10 uM after 48 hrs by sulforhodamine B assay; format: functional; settings: MDA-MB-231, 48 h, read-out: GI
[27] = system: SK-MEL-2; assay: Growth inhibition of human SK-MEL-2 cells at 10 uM after 48 hrs by sulforhodamine B assay; format: functional
[28] = system: U-251; assay: Growth inhibition of human U251 cells at 10 uM after 48 hrs by sulforhodamine B assay; format: functional; settings: U-251, 48 h, read-out: GI
[29] = system: M14; assay: Growth inhibition of human M14 cells at 10 uM after 48 hrs by sulforhodamine B assay; format: functional
[30] = system: EKVX; assay: Growth inhibition of human EKVX cells at 10 uM after 48 hrs by sulforhodamine B assay; format: functional
[31] = system: SK-OV-3; assay: Growth inhibition of human SKOV3 cells at 10 uM after 48 hrs by sulforhodamine B assay; format: functional
[32] = system: SW-620; assay: Growth inhibition of human SW620 cells at 10 uM after 48 hrs by sulforhodamine B assay; format: functional
[33] = system: LOX IMVI; assay: Growth inhibition of human LOXIMVI cells at 10 uM after 48 hrs by sulforhodamine B assay; format: functional
[34] = system: NCI-H23; assay: Growth inhibition of human NCI-H23 cells at 10 uM after 48 hrs by sulforhodamine B assay; format: functional
[35] = system: SF-268; assay: Growth inhibition of human SF268 cells at 10 uM after 48 hrs by sulforhodamine B assay; format: functional
[36] = system: MDA-MB-435; assay: Growth inhibition of human MDA-MB-435 cells at 10 uM after 48 hrs by sulforhodamine B assay; format: functional
[37] = system: RPMI-8226; assay: Growth inhibition of human RPMI8226 cells at 10 uM after 48 hrs by sulforhodamine B assay; format: functional; settings: RPMI-8226, 48 h, read-out: GI
[38] = system: BT-549; assay: Growth inhibition of human BT549 cells at 10 uM after 48 hrs by sulforhodamine B assay; format: functional
[39] = system: SN12C; assay: Growth inhibition of human SN12C cells at 10 uM after 48 hrs by sulforhodamine B assay; format: functional
[40] = molecular target: Carbonic anhydrase 9 (Homo sapiens, UniProt Q16790); assay: Inhibition of human carbonic anhydrase 9 after 15 mins by stopped flow CO2 hydration assay
[41] = system: CCRF-CEM; assay: Growth inhibition of human CCRF-CEM cells at 10 uM after 48 hrs by sulforhodamine B assay; format: functional; settings: read-out: GI
[42] = system: NCI-H460; assay: Growth inhibition of human NCI-H460 cells at 10 uM after 48 hrs by sulforhodamine B assay; format: functional
[43] = system: SNB-75; assay: Growth inhibition of human SNB75 cells at 10 uM after 48 hrs by sulforhodamine B assay; format: functional; settings: SNB-75, 48 h, read-out: GI
[44] = system: SF-295; assay: Growth inhibition of human SF295 cells at 10 uM after 48 hrs by sulforhodamine B assay; format: functional
[45] = system: OVCAR-8; assay: Growth inhibition of human OVCAR8 cells at 10 uM after 48 hrs by sulforhodamine B assay; format: functional
[46] = system: MOLT-4; assay: Growth inhibition of human MOLT4 cells at 10 uM after 48 hrs by sulforhodamine B assay; format: functional; settings: MOLT-4, 48 h, read-out: GI
[47] = system: NCI-H226; assay: Growth inhibition of human NCI-H226 cells at 10 uM after 48 hrs by sulforhodamine B assay; format: functional
[48] = system: OVCAR-3; assay: Growth inhibition of human OVCAR3 cells at 10 uM after 48 hrs by sulforhodamine B assay; format: functional
[49] = system: NCI/ADR-RES; assay: Growth inhibition of human NCI-ADR-RES cells at 10 uM after 48 hrs by sulforhodamine B assay; format: functional
[50] = system: HCT-15; assay: Growth inhibition of human HCT15 cells at 10 uM after 48 hrs by sulforhodamine B assay; format: functional
[51] = system: UACC-62; assay: Growth inhibition of human UACC62 cells at 10 uM after 48 hrs by sulforhodamine B assay; format: functional; settings: UACC-62, 48 h, read-out: GI
[52] = system: NCI-H522; assay: Growth inhibition of human NCI-H522 cells at 10 uM after 48 hrs by sulforhodamine B assay; format: functional; settings: NCI-H522, 48 h, read-out: GI
[53] = system: DU-145; assay: Growth inhibition of human DU145 cells at 10 uM after 48 hrs by sulforhodamine B assay; format: functional

CSc1nc(N)n(-c2ccncc2S(N)(=O)=O)n1
1%: inhibition of growth at 10 µM [26] | inhibition of growth at 10 µM [46] | inhibition of growth at 10 µM [52]
3%: inhibition of growth at 10 µM [8]
6%: inhibition of growth at 10 µM [28]
8%: inhibition of growth at 10 µM [41]
10%: inhibition of growth at 10 µM [2] | inhibition of growth at 10 µM [11]
4%: inhibition of growth at 10 µM [51]
2%: inhibition of growth at 10 µM [37]
20%: inhibition of growth at 10 µM [22]
7%: inhibition of growth at 10 µM [25] | inhibition of growth at 10 µM [43]
7.18: pKi [40]
inactive: growth inhibition (GI) [1] | growth inhibition (GI) [3] | growth inhibition (GI) [4] | growth inhibition (GI) [5] | growth inhibition (GI) [6] | growth inhibition (GI) [7] | growth inhibition (GI) [9] | growth inhibition (GI) [10] | growth inhibition (GI) [12] | growth inhibition (GI) [13] | growth inhibition (GI) [14] | growth inhibition (GI) [15] | growth inhibition (GI) [16] | growth inhibition (GI) [17] | growth inhibition (GI) [18] | growth inhibition (GI) [19] | growth inhibition (GI) [20] | growth inhibition (GI) [21] | growth inhibition (GI) [23] | growth inhibition (GI) [24] | growth inhibition (GI) [27] | growth inhibition (GI) [29] | growth inhibition (GI) [30] | growth inhibition (GI) [31] | growth inhibition (GI) [32] | growth inhibition (GI) [33] | growth inhibition (GI) [34] | growth inhibition (GI) [35] | growth inhibition (GI) [36] | growth inhibition (GI) [38] | growth inhibition (GI) [39] | growth inhibition (GI) [42] | growth inhibition (GI) [44] | growth inhibition (GI) [45] | growth inhibition (GI) [47] | growth inhibition (GI) [48] | growth inhibition (GI) [49] | growth inhibition (GI) [50] | growth inhibition (GI) [53]
